The target in one assay is MELK (Homo sapiens, UniProt Q14680). The assay is described as follows: Kinase assay: MELK activity, phosphorylation of FITC-labeled histone H3 peptide measured by IMAP fluorescence polarization. The format is biochemical. The settings on record: read-out: IC50 (μM) (kinase assay). Summed up: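 Compounds, serially diluted from 12.5 mM DMSO stocks to 1% final DMSO, were tested with FITC-labeled histone H3 peptide as substrate. The reaction was stopped with progressive binding solution. Fluorescence polarization was read after 0.5 hour at room temperature.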
In general terms: In fluorescence polarisation assays a small probe gives low polarisation when free and higher when bound to something large.

The subject of the next assay is T47D cells. The assay is described as follows: Cell-based assay: anti-proliferative activity, Cell Counting Kit-8, 72 hours (T47D). The settings on record: Homo sapiens, T47D, 72 h. An outline of the steps: (§1)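 Anti-MELK western blot on crude lysates → MELK status per line. Cells plated 96-well, compound exposure, CCK-8 readout at 72 h; IC50 calculated.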
(In general: Tetrazolium assays rely on reduction of a dye to a coloured formazan, in cell work by metabolically active cells.)

The next assay deals with A549 cells. The assay is described as follows: Cell-based assay: anti-proliferative activity, Cell Counting Kit-8, 72 hours (A549). The settings on record: Homo sapiens, A549, 72 h, 72 hours. Summed up:
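Cell Counting Kit-8 read-out of A549 growth after 72 hours of inhibitor exposure, cells plated in 96-well format. Values reported as IC50.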

The next assay has as its system HT-1197 cells. The assay is described as follows: Cell-based assay: anti-proliferative activity, Cell Counting Kit-8, 72 hours (HT-1197, negative control without MELK expression). The settings on record: Homo sapiens, HT1197, 72 h, HT1197 cells (negative control, no MELK expression), 72 hours. Summed up:
as §1

Another assay deals with DU4475 cells. The assay is described as follows: Cell-based assay: anti-proliferative activity, Cell Counting Kit-8, 72 hours (DU4475). The settings on record: Homo sapiens, DU-4475, 72 h.

Structures can show the parent of a compound that is named as a salt.

One may read the IC50 as the point on the concentration scale where inhibition reaches its midpoint.

Chain of MELK (Q14680 whole entry, looked up): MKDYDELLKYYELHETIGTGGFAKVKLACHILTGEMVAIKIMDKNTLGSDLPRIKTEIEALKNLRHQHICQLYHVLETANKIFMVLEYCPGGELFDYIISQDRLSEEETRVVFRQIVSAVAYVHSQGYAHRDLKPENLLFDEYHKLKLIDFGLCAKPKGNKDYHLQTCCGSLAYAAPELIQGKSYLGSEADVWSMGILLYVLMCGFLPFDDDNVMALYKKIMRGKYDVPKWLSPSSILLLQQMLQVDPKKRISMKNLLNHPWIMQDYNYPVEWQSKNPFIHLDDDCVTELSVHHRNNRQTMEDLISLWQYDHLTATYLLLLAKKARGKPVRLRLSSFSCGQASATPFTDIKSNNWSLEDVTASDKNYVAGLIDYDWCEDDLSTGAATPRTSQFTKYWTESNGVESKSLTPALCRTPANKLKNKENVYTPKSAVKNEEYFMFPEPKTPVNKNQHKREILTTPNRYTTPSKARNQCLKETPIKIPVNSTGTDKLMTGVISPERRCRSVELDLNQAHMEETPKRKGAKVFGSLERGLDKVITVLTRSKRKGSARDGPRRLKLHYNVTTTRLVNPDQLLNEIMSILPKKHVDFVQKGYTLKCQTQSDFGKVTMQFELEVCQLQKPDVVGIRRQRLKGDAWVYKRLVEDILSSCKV

`COc1cc(-c2ccc3ncc(C(=O)C4CC4)c(Nc4ccc(N5CCC(O)C5)nc4)c3c2)cc(Cl)c1O` (centres unmarked) [Example 669, (6-(3-chloro-4-hydroxy-5-methoxyphenyl)-4-(6-(3-hydroxypyrrolidin-1-yl)pyridin-3-ylamino)quinolin-3-yl)(cyclopropyl)methanone]: the IC50 at MELK was 0.012 µM; with T47D cells, 0.24 µM; in the assay with A549 cells it was 0.46 µM; in the assay on HT-1197 cells, 4.4 µM; with DU4475 cells, 0.75 µM.
On to `O=C(c1cnc2ccc(-c3cc(Cl)c(O)c(Cl)c3)cc2c1Nc1ccc(CN2CCCC2)nc1)C1CC1` [Example 658, Cyclopropyl{6-(3,5-dichloro-4-hydroxyphenyl)-4-[6-(pyrrolidin-1-ylmethyl)pyridin-3-ylamino]quinolin-3-yl}methanone], for which the IC50 at MELK was found to be 0.0078 µM; in the assay with T47D cells, 0.3 µM; with A549 cells it was 0.072 µM; with HT-1197 cells it was 4.5 µM; in the assay on DU4475 cells it was 0.07 µM.
Take `COc1cc(-c2ccc3ncc(C(=O)C4CC4)c(NC4CCC(N5CCC(OC)C5)CC4)c3c2)cc(Cl)c1O` (centres unmarked) [Example 687, (6-(3-chloro-4-hydroxy-5-methoxyphenyl)-4-(4-(3-methoxypyrrolidin-1-yl)cyclohexylamino)quinolin-3-yl)(cyclopropyl)methanone]: the IC50 at MELK came to 0.0033 µM; with T47D cells, 0.63 µM; in the assay with A549 cells, 0.45 µM; with HT-1197 cells, 3.3 µM; with DU4475 cells, 0.33 µM.
For the molecule `O=C(c1cnc2ccc(-c3cc(F)c(O)c(Cl)c3)cc2c1N[C@H]1CC[C@H](CNCCF)CC1)C1CC1` [Example 701], the IC50 at MELK worked out at 0.003 µM; with T47D cells it was 0.29 µM; in the assay on A549 cells, 0.41 µM; in the assay with HT-1197 cells, 0.98 µM; in the assay on DU4475 cells, 0.38 µM.
The like results for `COC1CCN(C2CCC(Nc3c(C(=O)C4CC4)cnc4ccc(-c5cc(F)c(O)c(Cl)c5)cc34)CC2)C1` (centres unmarked) [Example 686, (6-(3-chloro-5-fluoro-4-hydroxyphenyl)-4-(4-(3-methoxypyrrolidin-1-yl)cyclohexylamino)quinolin-3-yl)(cyclopropyl)methanone] were, in that order, 0.0035 µM, 0.19 µM, 0.17 µM, 1.1 µM and 0.16 µM.
Regarding `CN(C)C1CCN(Cc2ccc(Nc3c(C(=O)C4CC4)cnc4ccc(-c5cc(F)c(O)c(Cl)c5)cc34)cc2)C1` (centres unmarked) [Example 696, (6-(3-chloro-5-fluoro-4-hydroxyphenyl)-4-(4-((3-(dimethylamino)pyrrolidin-1-yl)methyl)phenylamino)quinolin-3-yl)(cyclopropyl)methanone], the IC50 was determined as 0.012 µM at MELK; 0.46 µM in the assay with T47D cells; 0.18 µM in the assay with A549 cells; 5.4 µM in the assay with HT-1197 cells; 0.17 µM with DU4475 cells.
`COc1cc(-c2ccc3ncc(C(C)=O)c(Nc4cccc(CCN(C)C)c4)c3c2)cc(Cl)c1O` [Example 730, 1-(6-(3-chloro-4-hydroxy-5-methoxyphenyl)-4-(3-(2-(dimethylamino)ethyl)phenylamino)quinolin-3-yl)ethanone]: the IC50 worked out at 0.0026 µM on MELK; 2.1 µM with T47D cells; 0.82 µM with A549 cells; 8 µM with HT-1197 cells; 0.69 µM with DU4475 cells.
For the molecule `CC(=O)c1cnc2ccc(-c3cc(Cl)c(O)c(Cl)c3)cc2c1N[C@@H]1CC[C@@H](CN2CCN(C)CC2)C1` [Example 728, 1-(6-(3,5-dichloro-4-hydroxyphenyl)-4-((1R,3R)-3-((4-methylpiperazin-1-yl)methyl)cyclopentylamino)quinolin-3-yl)ethanone], the IC50 is 0.0057 µM at MELK; 0.83 µM in the assay on T47D cells; 0.85 µM with A549 cells; 5.7 µM with HT-1197 cells; 0.48 µM with DU4475 cells.
As for `CN(C)CCc1cccc(Nc2c(C(=O)C3CC3)cnc3ccc(-c4cc(F)c(O)c(Cl)c4)cc23)c1` [Example 693, {6-(3-Chloro-5-fluoro-4-hydroxyphenyl)-4-[3-(2-(dimethylamino)ethyl)phenylamino]quinolin-3-yl}(cyclopropyl)methanone], the IC50 at MELK stood at 0.0083 µM; in the assay on T47D cells it was 0.37 µM; in the assay on A549 cells it was 0.09 µM; in the assay with HT-1197 cells, 10 µM; in the assay with DU4475 cells, 0.085 µM.
Turning to `O=C(c1cnc2ccc(-c3cc(Cl)c(O)c(Cl)c3)cc2c1NC1CCC(N2CC[C@@H](F)C2)CC1)C1CC1` (stereo partly drawn) [Example 643, (R)-cyclopropyl(6-(3,5-dichloro-4-hydroxyphenyl)-4-(4-(3-fluoropyrrolidin-1-yl)cyclohexylamino)quinolin-3-yl)methanone], the IC50 on MELK was 0.004 µM; with T47D cells, 0.37 µM; with A549 cells, 0.34 µM; in the assay with HT-1197 cells it was 2.4 µM; with DU4475 cells it was 0.14 µM.
For the molecule `CC(C)C(=O)c1cnc2ccc(-c3cc(F)c(O)c(Cl)c3)cc2c1Nc1ccc(N2CCNCC2)nc1` [Example 674, 1-(6-(3-chloro-5-fluoro-4-hydroxyphenyl)-4-(6-(piperazin-1-yl)pyridin-3-ylamino)quinolin-3-yl)-2-methylpropan-1-one], the IC50 turned out to be 0.0069 µM on MELK; 0.11 µM in the assay with T47D cells; 0.46 µM in the assay on A549 cells; 2.4 µM in the assay with HT-1197 cells; 0.15 µM in the assay on DU4475 cells.
On to `O=C(c1cnc2ccc(-c3cc(F)c(O)c(Cl)c3)cc2c1Nc1ccc(NCCO)nc1)C1CC1` [Example 679, (6-(3-chloro-5-fluoro-4-hydroxyphenyl)-4-(6-(2-hydroxyethylamino)pyridin-3-ylamino)quinolin-3-yl)(cyclopropyl)methanone], for which the IC50 amounted to 0.03 µM at MELK; 0.23 µM in the assay with T47D cells; 1.3 µM in the assay with A549 cells; 3.7 µM with HT-1197 cells; 0.12 µM in the assay with DU4475 cells.
Regarding `COc1cc(-c2ccc3ncc(C(=O)C4CC4)c(Nc4ccc(CN5CCC(N(C)C)C5)cc4)c3c2)cc(Cl)c1O` (centres unmarked) [Example 697, (6-(3-chloro-4-hydroxy-5-methoxyphenyl)-4-(4-((3-(dimethylamino)pyrrolidin-1-yl)methyl)phenylamino)quinolin-3-yl)(cyclopropyl)methanone], the IC50 at MELK is 0.0084 µM; with T47D cells, 0.81 µM; in the assay on A549 cells, 0.44 µM; in the assay with HT-1197 cells, 1.8 µM; in the assay with DU4475 cells, 0.64 µM.
As for `COc1cc(-c2ccc3ncc(C(=O)C4CC4)c(N[C@H]4CC[C@H](CN5CCN(C)CC5)CC4)c3c2)cc(Cl)c1O` [Example 637], the IC50 at MELK came to 0.0035 µM; in the assay on T47D cells, 0.68 µM; in the assay with A549 cells, 0.32 µM; with HT-1197 cells, 2.9 µM; with DU4475 cells, 0.67 µM.
`NC1CCCN(c2ccc(Nc3c(C(=O)C4CC4)cnc4ccc(-c5cc(F)c(O)c(F)c5)cc34)cn2)C1` (centres unmarked) [Example 725, (4-(6-(3-Aminopiperidin-1-yl)pyridin-3-ylamino)-6-(3,5-difluoro-4-hydroxyphenyl)quinolin-3-yl)(cyclopropyl)methanone]: the IC50 worked out at 0.003 µM at MELK; 0.0078 µM in the assay with T47D cells; 0.012 µM with A549 cells; 0.11 µM in the assay on HT-1197 cells; 0.01 µM with DU4475 cells.
Consider `CN1CCCC(n2cc(Nc3c(C(=O)C4CC4)cnc4ccc(-c5cc(Cl)c(O)c(Cl)c5)cc34)cn2)C1` (centres unmarked) [Example 703, Cyclopropyl{6-(3,5-dichloro-4-hydroxyphenyl)-4-[1-(1-methylpiperidin-3-yl)-1H-pyrazol-4-ylamino]quinolin-3-yl}methanone], for which the IC50 at MELK came out at 0.0013 µM; with T47D cells, 0.33 µM; in the assay on A549 cells it was 0.11 µM; in the assay with HT-1197 cells it was 5.5 µM; in the assay with DU4475 cells, 0.052 µM.
With `O=C(c1cnc2ccc(-c3cc(F)c(O)c(Cl)c3)cc2c1NC1CCNCC1)C1CC1` [Example 719, (6-(3-chloro-5-fluoro-4-hydroxyphenyl)-4-(piperidin-4-ylamino)quinolin-3-yl)(cyclopropyl)methanone], the concentration for half-maximal inhibition (IC50) is 0.0092 µM at MELK; 0.32 µM with T47D cells; 0.69 µM in the assay with A549 cells; 10 µM in the assay with HT-1197 cells; 0.17 µM in the assay with DU4475 cells.
For the molecule `N[C@H]1CC[C@H](n2cc(Nc3c(C(=O)C4CC4)cnc4ccc(-c5cc(Cl)c(O)c(Cl)c5)cc34)cn2)CC1` [Example 706, (4-((1-(trans-4-aminocyclohexyl)-1H-pyrazol-4-yl)amino)-6-(3,5-dichloro-4-hydroxyphenyl)quinolin-3-yl)(cyclopropyl)methanone dihydrochloride], the IC50 at MELK came to 0.0011 µM; in the assay on T47D cells it was 0.042 µM; with A549 cells, 0.59 µM; in the assay on HT-1197 cells, 7.9 µM; with DU4475 cells, 0.02 µM.
On to `O=C(c1cnc2ccc(-c3cc(F)c(O)c(Cl)c3)cc2c1NC1CCC(N2CC[C@@H](F)C2)CC1)C1CC1` (stereo partly drawn) [Example 642, (R)-(6-(3-chloro-5-fluoro-4-hydroxyphenyl)-4-(4-(3-fluoropyrrolidin-1-yl)cyclohexylamino)quinolin-3-yl)(cyclopropyl)methanone], for which the half-maximal inhibitory concentration (IC50) at MELK came to 0.0075 µM; in the assay on T47D cells, 0.17 µM; in the assay on A549 cells, 0.2 µM; with HT-1197 cells, 0.76 µM; in the assay on DU4475 cells, 0.11 µM.

Values taken from US9120749B2, “Quinoline derivatives and MELK inhibitors containing the same” (ONCOTHERAPY SCIENCE, INC., priority 2010, dated 2015).
